Assay results: US11319315B2, “Cyclohexyl acid triazole azoles as LPA antagonists” (BRISTOL-MYERS SQUIBB COMPANY, priority 2017, dated 2022)
Counter-ions that a name gives are not always drawn. Like-named read-outs stand apart in the source and are kept apart here.

Target: T1, human LPA1 (Homo sapiens, UniProt Q92633)
T1 construct: expressed in transfected cells; host or cells: Chinese hamster ovary (CHO) cells
Experiment: LPA1 functional antagonist assay (LPA-induced calcium flux in CHO cells overexpressing human LPA1)
Assay type: cell-based
Conditions: read-out: hLPA1 IC50
Method in brief: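 CHO cells overexpressing human LPA1, dye-loaded 30 min at 37 °C, then given compound (0.08 nM–5 μM final, 0.5% DMSO) in HBSS/20 mM HEPES/0.1% fatty-acid-free BSA for 20 min at room temperature before 10 nM LPA. IC50 as 50% inhibition of LPA-evoked calcium flux, 4-parameter logistic fit.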

[1] = inhibition of calcium flux induced by 10 nM LPA, CHO cells overexpressing human LPA1

T1 sequence (Q92633 whole entry): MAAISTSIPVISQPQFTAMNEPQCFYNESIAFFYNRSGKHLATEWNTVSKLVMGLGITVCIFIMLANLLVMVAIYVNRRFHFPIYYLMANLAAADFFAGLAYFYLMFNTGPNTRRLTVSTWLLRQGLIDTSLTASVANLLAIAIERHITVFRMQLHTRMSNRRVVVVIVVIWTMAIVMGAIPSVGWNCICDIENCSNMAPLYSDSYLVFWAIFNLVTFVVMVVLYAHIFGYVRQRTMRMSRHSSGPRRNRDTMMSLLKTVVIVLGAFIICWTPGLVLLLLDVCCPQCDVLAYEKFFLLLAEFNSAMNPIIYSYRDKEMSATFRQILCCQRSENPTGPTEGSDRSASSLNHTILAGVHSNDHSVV

Compound	IC50 [1]	IC50
CCc1nc(N(C)Cc2c(-c3ccc(O[C@H]4CCC[C@H](C(=O)O)C4)c(C)n3)nnn2C)no1 [Example 224, (1S,3S)-3-((6-(5-(((5-ethyl-1,2,4-oxadiazol-3-yl)(methyl)amino)methyl)-1-methyl-1H-1,2,3-triazol-4-yl)-2-methylpyridin-3-yl)oxy)cyclo-hexane-1-carboxylic acid]	2.72 µM	–
Cc1nc(-c2nnn(C)c2CNc2nc(C3CC3)no2)ccc1O[C@H]1CCC[C@H](C(=O)O)C1 [Example 58]	0.316 µM	–
CCCc1cn(Cc2c(-c3ccc(O[C@H]4CCC[C@H](C(=O)O)C4)c(C)n3)nnn2C)nn1 [Example 269, (1 S,3S)-3-((2-methyl-6-(1-methyl-5-((4-propyl-1H-1,2,3-triazol-1-yl)methyl)-1H-1,2,3-triazol-4-yl)pyridin-3-yl)oxy)cyclohexane-1-carboxylic acid]	0.076 µM	–
Cc1nc(-c2nnn(C)c2CNc2noc(C3CC(C)C3)n2)ccc1O[C@H]1CCC[C@H](C(=O)O)C1 (stereo partly drawn) [Example 198]	0.028 µM	–
Cc1nc(-c2nnn(C)c2Cc2noc(C(C)C)n2)ccc1O[C@H]1CCC[C@H](C(=O)O)C1 [Example 230, (1S,3S)-3-((6-(5-((5-isopropyl-1,2,4-oxadiazol-3-yl)methyl)-1-methyl-1H-1,2,3-triazol-4-yl)-2-methylpyridin-3-yl)oxy)cyclohexane-1-carboxylic acid]	0.095 µM	–
CCCCc1nnn(Cc2c(-c3ccc(O[C@H]4CCC[C@H](C(=O)O)C4)cn3)nnn2C)n1 [Example 257, (1S,3S)-3-((6-(5-((5-butyl-2H-tetrazol-2-yl)methyl)-1-methyl-1H-1,2,3-triazol-4-yl)pyridin-3-yl)oxy)cyclohexane-1-carboxylic acid]	0.0125 µM	–
COC[C@@H](C)Oc1nnn(Cc2c(-c3ccc(O[C@H]4CCC[C@H](C(=O)O)C4)c(C)n3)nnn2C)n1 [Example 403, (1S,3S)-3-[(6-{5-[(5-{[(2R)-1-methoxypropan-2-yl]oxyl}-2H-1,2,3,4-tetrazol-2-yl)methyl]-1-methyl-1H-1,2,3-triazol-4-yl}-2-methylpyridin-3-yl)oxy]cyclo-hexane-1-carboxylic acid]	–	0.25 µM
Cc1nc(-c2nnn(C)c2Cn2ncc(CC(C)C)n2)ccc1O[C@H]1CCC[C@H](C(=O)O)C1 [Example 260, (1 S,3 S)-3-((6-(5-((4-Isobutyl-2H-1,2,3-triazol-2-yl)methyl)-1-methyl-1H-1,2,3-triazol-4-yl)-2-methylpyridin-3-yl)oxy)cyclohexane-1-carboxylic acid]	0.035 µM	–
CCCCc1nc(Nc2c(-c3ccc(O[C@H]4CCC[C@H](C(=O)O)C4)c(C)n3)nnn2C)no1 [Example 275, (1 S,3 S)-3-((6-(5-((5-Butyl-1,2,4-oxadiazol-3-yl)amino)-1-methyl-1H-1,2,3-triazol-4-yl)-2-methylpyridin-3-yl)oxy)cyclohexane-1-carboxylic acid, 2 TFA salt]	0.018 µM	–
Cc1nc(-c2nnn(C)c2CNc2nnc(CCC(C)C)o2)ccc1O[C@H]1CCC[C@H](C(=O)O)C1 [Example 55]	0.045 µM	–
COc1ccc(-n2nnc(NCc3c(-c4ccc(O[C@H]5CCC[C@@H](C(=O)O)C5)c(C)n4)nnn3C)n2)cc1 [Example 379, (1R,3S)-3-((6-(5-(((2-(4-methoxy-phenyl)-2H-tetrazol-5-yl)amino)methyl)-1-methyl-1H-1,2,3-triazol-4-yl)-2-methylpyridin-3-yl)oxy)cyclohexane-1-carboxylic acid]	–	2.08 µM
Cn1nnc(-c2ccc(O[C@H]3CCC[C@H](C(=O)O)C3)cn2)c1CNc1noc(CCC2CC2)n1 [Example 286, (1S,3S)-3-((6-(5-(((5-(2-cyclopropyl-ethyl)-1,2,4-oxadiazol-3-yl)amino)methyl)-1-methyl-1H-1,2,3-triazol-4-yl)pyridin-3-yl)oxy)cyclohexane-1-carboxylic acid]	0.01 µM	–
Cn1nnc(-c2ccc(O[C@H]3CCC[C@H](C(=O)O)C3)cn2)c1Cn1nnc(CC2CC2)n1 [Example 250, (1 S,3 S)-3-((6-(5-((5-(cyclopropylmethyl)-2H-tetrazol-2-yl)methyl)-1-methyl-1H-1,2,3-triazol-4-yl)pyridin-3-yl)oxy)cyclohexane-1-carboxylic acid]	0.044 µM	–
Cc1nc(-c2nnn(C)c2Cn2ncc(CC3CC3)n2)ccc1O[C@H]1CCC[C@H](C(=O)O)C1 [Example 264, (1S,3S)-3-((6-(5-((4-(cyclopropyl-methyl)-2H-1,2,3-triazol-2-yl)methyl)-1-methyl-1H-1,2,3-triazol-4-yl)-2-methylpyridin-3-yl)oxy)cyclohexane-1-carboxylic acid]	0.014 µM	–
Cc1nc(-c2nnn(C)c2Cn2nnc(N(Cc3ccccc3)Cc3ccccc3)n2)ccc1O[C@H]1CCC[C@H](C(=O)O)C1 [Example 367, (1S,3S)-3-((6-(5-((5-(dibenzyl-amino)-2H-tetrazol-2-yl)methyl)-1-methyl-1H-1,2,3-triazol-4-yl)-2-methylpyridin-3-yl)oxy)cyclo-hexane-1-carboxylic acid]	–	1.58 µM
Cc1nc(-c2nnn(C)c2Cn2nnc(N(C)CC3CC3)n2)ccc1O[C@H]1CCC[C@H](C(=O)O)C1 [Example 408, (1S,3S)-3-({6-(5-({5-[(cyclopropylmethyl)(methyl)amino]-2H-1,2,3,4-tetrazol-2-yl}methyl)-1-methyl-1H-1,2,3-triazol-4-yl]-2-methylpyridin-3-yl}oxy)cyclohexane-1-carboxylic acid]	–	0.339 µM
CC(C)c1nc(NCc2c(-c3ccc(O[C@H]4CCC[C@H](C(=O)O)C4)cn3)nnn2C)ns1 [Example 137]	0.32 µM	–
Cc1nc(-c2nnn(C)c2Cn2nnnc2N2CCCC2)ccc1O[C@H]1CCC[C@H](C(=O)O)C1 [Example 311, (1S,3S)-3-{[2-methyl-6-(1-methyl-5-{[5-(pyrrolidin-1-yl)-1H-1,2,3,4-tetrazol-1-yl]methyl}-1H-1,2,3-triazol-4-yl)pyridin-3-yl]oxy}cyclohexane-1-carboxylic acid]	0.605 µM	–
Cc1nc(-c2nnn(C)c2CNc2noc(C3CC3(C)C)n2)ccc1O[C@H]1CCC[C@H](C(=O)O)C1 (stereo partly drawn) [Example 182]	0.017 µM	–

Now from value to molecule:

IC50 [1]	IC50	Compound
0.109 µM	–	CCCc1nsc(NCc2c(-c3ccc(O[C@H]4CCC[C@H](C(=O)O)C4)c(C)n3)nnn2C)n1 [Example 104]
0.038 µM	–	Cc1nc(-c2nnn(C)c2CNc2nc(Cc3ccccc3)no2)ccc1O[C@H]1CCC[C@H](C(=O)O)C1 [Example 63]
0.047 µM	–	Cc1nc(-c2nnn(C)c2COc2ncn(-c3ccccc3)n2)ccc1O[C@H]1CCC[C@H](C(=O)O)C1 [Example 115, (1S,3S)-3-((2-methyl-6-(1-methyl-5-(((1-phenyl-1H-1,2,4-triazol-3-yl)oxy)methyl)-1H-1,2,3-triazol-4-yl)pyridin-3-yl)oxy)cyclohexane-1-carboxylic acid]
0.51 µM	–	Cc1nc(-c2nnn(C)c2CNc2nc(C3CC3)ns2)ccc1O[C@H]1CCC[C@H](C(=O)O)C1 [Example 103]
1.09 µM	–	Cc1nc(-c2nnn(C)c2Cn2ncnc2C2CC2)ccc1O[C@H]1CCC[C@H](C(=O)O)C1 [Example 206]
0.094 µM	–	Cc1nc(-c2nnn(C)c2COc2nnnn2CC(C)C)ccc1O[C@H]1CCC[C@H](C(=O)O)C1 [Example 144]
0.363 µM	–	Cc1nc(-c2nnn(C)c2Cn2cc(C(O)c3ccccc3)nn2)ccc1O[C@H]1CCC[C@H](C(=O)O)C1 (stereo partly drawn) [Example 87]
0.024 µM	–	Cc1nc(-c2nnn(C)c2Cn2nnc(CCC(C)C)n2)ccc1O[C@H]1CCC[C@H](C(=O)O)C1 [Example 310, (1S,3S)-3-{[2-methyl-6-(1-methyl-5-{[5-(3-methylbutyl)-2H-1,2,3,4-tetrazol-2-yl]methyl}-1H-1,2,3-triazol-4-yl)pyridin-3-yl]oxy}cyclohexane-1-carboxylic acid]
0.337 µM	–	Cc1nc(-c2nnn(C)c2CNc2cnn(C(C)C)n2)ccc1O[C@H]1CCC[C@H](C(=O)O)C1 [Example 124]
0.052 µM	–	Cc1nc(-c2nnn(C)c2Cc2noc(CC(C)C)n2)ccc1O[C@H]1CCC[C@H](C(=O)O)C1 [Example 234, (1S,3S)-3-((6-(5-((5-isobutyl-1,2,4-oxadiazol-3-yl)methyl)-1-methyl-1H-1,2,3-triazol-4-yl)-2-methylpyridin-3-yl)oxy)cyclohexane-1-carboxylic acid]
0.073 µM	–	Cc1nc(-c2nnn(C)c2CNc2nc(C3CCC3)ns2)ccc1O[C@H]1CCC[C@H](C(=O)O)C1 [Example 99]
1.32 µM	–	CCOC1(c2nc(NCc3c(-c4ccc(O[C@H]5CCC[C@H](C(=O)O)C5)c(C)n4)nnn3C)no2)CC1 [Example 225, (1S,3S)-3-((6-(5-(((5-(1-ethoxy-cyclopropyl)-1,2,4-oxadiazol-3-yl)amino)methyl)-1-methyl-1H-1,2,3-triazol-4-yl)-2-methylpyridin-3-yl)oxy)cyclohexane-1-carboxylic acid]
0.143 µM	–	CCCCc1nc(NCc2c(-c3nc(C)c(O[C@H]4CCC[C@H](C(=O)O)C4)cc3F)nnn2C)no1 [Example 280, (1S,3S)-3-((6-(5-(((5-butyl-1,2,4-oxadiazol-3-yl)amino)methyl)-1-methyl-1H-1,2,3-triazol-4-yl)-5-fluoro-2-methylpyridin-3-yl)oxy)cyclohexane-1-carboxylic acid]
0.109 µM	–	Cn1nnc(-c2ccc(O[C@H]3CCC[C@H](C(=O)O)C3)c(C#N)n2)c1Cn1cc(Cc2ccccc2)nn1 [Example 91]
0.297 µM	–	CCCn1ncc(NCc2c(-c3ccc(O[C@H]4CCC[C@H](C(=O)O)C4)c(C)n3)nnn2C)n1 [Example 29]
0.026 µM	–	Cc1nc(-c2nnn(C)c2Cn2nnc(OCC3CC3)n2)ccc1O[C@H]1CCC[C@H](C(=O)O)C1 [Example 348, (1S,3S)-3-{[6-(5-{[5-(cyclopropyl-methoxy)-2H-1,2,3,4-tetrazol-2-yl]methyl}-1-methyl-1H-1,2,3-triazol-4-yl)-2-methylpyridin-3-yl]oxy}cyclohexane-1-carboxylic acid]
0.187 µM	–	CCCc1cn(Cc2c(-c3ccc(O[C@H]4CCC[C@H](C(=O)O)C4)c(C)n3)nnn2C)nn1 [Example 86]
